Reference: patent US5457105A, “Quinazoline derivatives useful for treatment of neoplastic disease” (Zeneca Limited, priority 1992, dated 1995)

Tests used:
receptor tyrosine kinase = target: T1, receptor tyrosine kinase (Homo sapiens, UniProt P00533); experiment: Test (a): in vitro inhibition of the enzyme receptor tyrosine kinase (from A-431 cells); type: biochemical; details: EGF, 25° C., 10 minutes
T1 construct: obtained in partially purified form from A-431 cells; endogenous in cells; host or cells: A-431 cells (human vulval carcinoma); detergent-solubilised membrane fraction
Description: (a) An in vitro assay which determines the ability of a test compound to inhibit the enzyme receptor tyrosine kinase. Receptor tyrosine kinase was obtained in partially purified form from A-431 cells (derived from human vulval carcinoma) by procedures related to those described by Carpenter et al., J. Biol. Chem., 1979, 254, 4884, Cohen et al., J. Biol. Chem., 1982, 257, 1523 and by Braun et al., J. Biol. Chem., 1984, 259, 2051.
A-431 cells were grown to confluence using Dulbecco's modified Eagle's medium (DMEM) containing 5% fetal calf serum (FCS). The obtained cells were homogenised in a hypotonic borate/EDTA buffer at pH 10.1. The homogenate was centrifuged at 400 g for 10 minutes at 0°-4° C. The supernatant was centrifuged at 25,000 g for 30 minutes at 0°-4° C. The pelleted material was suspended in 30 mM Hepes buffer at pH 7.4 containing 5% glycerol, 4 mM benzamidine and 1% Triton X-100, stirred for 1 hour at 0°-4° C., and recentrifuged at 100,000 g for 1 hour at 0°-4° C. The supernatant, containing solubilised receptor tyrosine kinase, was stored in liquid nitrogen.
For test purposes 40 μl of the enzyme solution so obtained was added to a mixture of 400 μl of a mixture of 150 mM Hepes buffer at pH 7.4, 500 μM sodium orthovanadate, 0.1% Triton X-100, 10% glycerol, 200 μl water, 80 μl of 25 mM DTT and 80 µl of a mixture of 12.5 mM manganese chloride, 125 mM magnesium chloride and distilled water. There was thus obtained the test enzyme solution.
Each test compound was dissolved in dimethylsulphoxide (DMSO) to give a 50 mM solution which was diluted with 40 mM Hepes buffer containing 0.1% Triton X-100, 10% glycerol and 10% DMSO to give a 500 μM solution. Equal volumes of this solution and a solution of epidermal growth factor (EGF; 20 μg/ml) were mixed.
[γ-^32 P]ATP (3000 Ci/mM, 250 μCi) was diluted to a volume of 2 ml by the addition of a solution of ATP (100 μM) in distilled water. An equal volume of a 4 mg/ml solution of the peptide Arg-Arg-Leu-Ile-Glu-Asp-Ala-Glu-Tyr-Ala-Ala-Arg-Gly in a mixture of 40 mM Hepes buffer at pH 7.4, 0.1% Triton X-100 and 10% glycerol was added.
The test compound/EGF mixture solution (5 μl) was added to the test enzyme solution (10 μl) and the mixture was incubated at 0°-4° C. for 30 minutes. The ATP/peptide mixture (10 μl) was added and the mixture was incubated at 25° C. for 10 minutes. The phosphorylation reaction was terminated by the addition of 5% trichloroacetic acid (40 μl) and bovine serum albumin (BSA; 1 mg/ml, 5 μl). The mixture was allowed to stand at 4° C. for 30 minutes and then centrifuged. […] Radioactivity present in the filter paper was measured using a liquid scintillation counter (Sequence A). […]
The extent of inhibition was then determined at a range of concentrations of test compound to give an IC50 value.

[1] = tested on: human naso-pharyngeal cancer cell line KB; experiment: Test (b): in vitro inhibition of growth of the human naso-pharyngeal cancer cell line KB; type: cell-based; details: KB cells, EGF (10 ng/ml), 3 days, MTT
Description: (b) An in vitro assay which determines the ability of a test compound to inhibit the growth of the human naso-pharyngeal cancer cell line KB.
KB cells were seeded into wells at a density of 1×10^4 -1.5×10^4 cells per well and grown for 24 hours in DMEM supplemented with 5% FCS (charcoal-stripped). Cell growth was determined after incubation for 3 days by the extent of metabolism of MTT tetrazolium dye to furnish a bluish colour. Cell growth was then determined in the presence of EGF (10 ng/ml) or in the presence of EGF (10 ng/ml) and a test compound at a range of concentrations. An IC50 value could then be calculated.

[2] = tested on: liver hepatocyte growth caused by the administration of the growth factor TGFα; experiment: Test (c): in vivo inhibition of TGFα-stimulated liver hepatocyte growth in male rats; set-up: species or system rat; details: usually orally, TGFα 400 μg/kg subcutaneously, inhibition of BrdU uptake, approximate ED50
Description: Cell-growth in the control and test animals is determined as follows: On the morning of the day after the dosing of the test compound (or 0.5% polysorbate in the control group), the animals are dosed with bromodeoxyuridine (BrdU; 100 mg/kg intraperitoneally). The animals are killed four hours later and the livers are excised. […] Further tests were carried out using a range of doses of the test compounds to allow the calculation of an approximate ED50 value for the inhibition of liver hepatocyte proliferation as determined by inhibition of the uptake of BrdU.

[3] = tested on: human mammary carcinoma which expresses epidermal growth factor (EGF) receptor tyrosine kinase; details: athymic nude mice; EGF receptor tyrosine kinase expressing; Toi et al. 1990; cited from earlier work
[4] = tested on: another carcinoma which does not express EGF receptor tyrosine kinase; details: carcinoma not expressing EGF receptor tyrosine kinase; Toi et al. 1990; cited from earlier work

T1 sequence (P00533 25-1210): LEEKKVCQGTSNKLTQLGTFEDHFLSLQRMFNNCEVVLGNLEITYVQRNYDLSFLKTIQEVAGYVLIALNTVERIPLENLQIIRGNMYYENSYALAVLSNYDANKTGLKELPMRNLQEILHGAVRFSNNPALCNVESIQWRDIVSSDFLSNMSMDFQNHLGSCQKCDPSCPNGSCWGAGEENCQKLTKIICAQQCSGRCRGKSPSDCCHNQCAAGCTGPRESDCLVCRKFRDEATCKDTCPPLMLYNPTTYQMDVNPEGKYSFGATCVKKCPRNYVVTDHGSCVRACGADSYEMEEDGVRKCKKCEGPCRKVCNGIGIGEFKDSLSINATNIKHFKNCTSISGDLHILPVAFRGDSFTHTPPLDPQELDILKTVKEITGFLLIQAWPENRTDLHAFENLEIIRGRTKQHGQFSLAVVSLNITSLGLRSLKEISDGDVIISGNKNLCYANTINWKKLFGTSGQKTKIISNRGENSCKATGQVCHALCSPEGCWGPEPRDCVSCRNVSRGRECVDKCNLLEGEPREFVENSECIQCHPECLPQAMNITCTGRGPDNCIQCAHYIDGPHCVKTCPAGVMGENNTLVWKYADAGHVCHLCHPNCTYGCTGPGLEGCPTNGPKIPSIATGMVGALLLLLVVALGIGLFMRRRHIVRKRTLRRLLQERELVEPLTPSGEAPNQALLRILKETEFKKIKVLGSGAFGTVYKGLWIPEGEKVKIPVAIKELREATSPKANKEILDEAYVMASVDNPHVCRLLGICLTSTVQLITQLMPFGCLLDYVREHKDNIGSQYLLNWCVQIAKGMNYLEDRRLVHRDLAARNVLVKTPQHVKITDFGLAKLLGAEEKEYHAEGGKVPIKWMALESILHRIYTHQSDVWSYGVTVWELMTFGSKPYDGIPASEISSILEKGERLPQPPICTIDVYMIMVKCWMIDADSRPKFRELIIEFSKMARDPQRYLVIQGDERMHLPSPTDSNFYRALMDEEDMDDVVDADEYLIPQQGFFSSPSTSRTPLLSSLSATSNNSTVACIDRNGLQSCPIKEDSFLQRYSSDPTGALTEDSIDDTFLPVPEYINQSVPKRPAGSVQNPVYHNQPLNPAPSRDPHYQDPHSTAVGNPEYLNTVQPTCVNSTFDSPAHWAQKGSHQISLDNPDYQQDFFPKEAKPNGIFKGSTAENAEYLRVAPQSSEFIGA

| IC50 (receptor tyrosine kinase) | IC50 ([1]; Homo sapiens, 72 h) | SMILES | further results |
| --- | --- | --- | --- |
| 5 nM | 50 nM | COc1cc2ncnc(Nc3cccc(C)c3)c2cc1OC [6,7-dimethoxy-4-(3'-methylanilino)quinazoline] | ED50 ([2]; Rattus norvegicus, Hepatocyte, po): < 5 mg/kg |
| 10 nM | 300 nM | COc1cc2ncnc(Nc3cccc(C(F)(F)F)c3)c2cc1OC [6,7-dimethoxy-4-(3'-trifluoromethylanilino)quinazoline] |  |
| 10 nM | 650 nM | CC(=O)Nc1ccc2ncnc(Nc3cccc(C)c3)c2c1 [6-acetamido-4-(3'-methylanilino)quinazoline] |  |
|  |  | Cc1cccc(Nc2ncnc3ccc(N)cc23)c1 [6-amino-4-(3'-methylanilino)quinazoline] | IC50 [1]: 1000 nM; ED50 in Test (c) [2]: < 5 mg/kg |
| 5 nM | 140 nM | COc1cc2c(Nc3cccc(C)c3)ncnc2cc1OCCO [7-(2-hydroxyethoxy)-6-methoxy-4-(3'-methylanilino)quinazoline] |  |
|  |  | O=CN/C=C/c1cc(O)ccc1O [erbstatin] | growth of transplanted human mammary carcinoma [3]: specifically attenuates the growth; growth of another carcinoma [4]: without effect |
